Reference: EP0366632A1, “Alternative energy substrates” (priority 1988, dated 1990)

Assays:
[1] = tested on: Asperg. niger ATCC 16404 (mould); assay: Microorganism count in 2% ester emulsions (Example 12, Table 1); assay type: cell-based; conditions: 2% emulsion, phosphate buffer pH=7.0, +37°C, Additive/ml 7943
Description: (§1) In addition to ester, the emulsions also comprised egg-yolk phospholipid 1,2% and sterile water. The emulsions were prepared aseptically, by emulsifying sterile-filtered ester with a sterilized dispersion of egg-yolk phospholipids. Aliquots of these emulsions were diluted with a phosphate buffer (0.01 M, pH=7.0) in the proportions of 1 and 10 respectively, so as to obtain 2-percent emulsions. Various microorganisms according to Table 1 below were added to these emulsions. The samples were then incubated at +37°C for 20 hours. Counting of the number of microorganisms was started after 2 and 20 hours, in the manner described in microbiological literature. Checks were run on a pure phosphate buffer with additives of the same microorganisms as earlier, in parallel with the aforesaid experiments, while checks were run in Tryptone Soya broth (TSB) with additions of the same microorganisms, in order to ascertain whether or not the microorganisms could survive, i.e. could grow under the ideal conditions. […]

[2] = tested on: Cand. albicans ATCC 10231 (yeast); assay: as above; assay type: cell-based; conditions: 2% emulsion, phosphate buffer pH=7.0, +37°C, Additive/ml 6310
Description: as §1

[3] = tested on: Cand. parapsil. (yeast); assay: as above; assay type: cell-based; conditions: 2% emulsion, phosphate buffer pH=7.0, +37°C, Additive/ml 5012
Description: as §1

[4] = tested on: E. coli ATCC 8739; assay: as above; assay type: cell-based; conditions: 2% emulsion, phosphate buffer pH=7.0, +37°C, Additive/ml 6310
Description: as §1

[5] = tested on: Enter. cloacae; assay: as above; assay type: cell-based; conditions: 2% emulsion, phosphate buffer pH=7.0, +37°C, Additive/ml 1585
Description: as §1

[6] = tested on: Klebs. pneum. ATCC 25955; assay: as above; assay type: cell-based; conditions: 2% emulsion, phosphate buffer pH=7.0, +37°C, Additive/ml 1995
Description: as §1

[7] = tested on: Penicillium sp. (mould); assay: as above; assay type: cell-based; conditions: 2% emulsion, phosphate buffer pH=7.0, +37°C, Additive/ml 3162
Description: as §1

[8] = tested on: Proteus vulg. ATCC 13315; assay: as above; assay type: cell-based; conditions: 2% emulsion, phosphate buffer pH=7.0, +37°C, Additive/ml 1000
Description: as §1

[9] = tested on: Ps. aeruginosa ATCC 19429; assay: as above; assay type: cell-based; conditions: 2% emulsion, phosphate buffer pH=7.0, +37°C, Additive/ml 7943
Description: as §1

[10] = tested on: Serr. maresc. ATCC 14756; assay: as above; assay type: cell-based; conditions: 2% emulsion, phosphate buffer pH=7.0, +37°C, Additive/ml 6310
Description: as §1

[11] = tested on: Staf. aureus ATCC 6535; assay: as above; assay type: cell-based; conditions: 2% emulsion, phosphate buffer pH=7.0, +37°C, Additive/ml 5012
Description: as §1

[12] = tested on: Staf. epiderm.; assay: as above; assay type: cell-based; conditions: 2% emulsion, phosphate buffer pH=7.0, +37°C, Additive/ml 6310
Description: as §1

[13] = tested on: Ulocladium sp. (mould); assay: as above; assay type: cell-based; conditions: 2% emulsion, phosphate buffer pH=7.0, +37°C, Additive/ml 2512
Description: as §1

[14] = tested on: Staphylococcus aureus ATCC 6535; assay: Microorganism count in 2% and 0.2% ester emulsions (Example 13); assay type: cell-based
Description: Both of the emulsions included egg-yolk phospholipide 1,2% and sterile water, in addition to ester. The emulsions were prepared aseptically, by emulsifying sterile-filtered ester with a sterilized dispersion of egg-yolk phospholipids.
Aliquots of these emulsions were diluted with phosphate buffer (0.01 M, pH=7.0), in the proportions of 1 and 100 in respective emulsions. Staphylococcus aureus ATCC 6535 was then added to the emulsions. The samples were then incubated at +37°C for 20 hours. The microorganism count was carried out after 1-5 minutes, 2 and 20 hours, in the manner described in microbiological literature. Parallel with the above experiments, a check was made on the phospholipid solution 1,2% and TSB (Tryptone soya broth), by adding Staphylococcus aureus ATCC 6535. The latter substrate was tested to ascertain whether the controlled microorganisms were viable. […] The starting concentration was about 5x10³. […] After 2 hours, the number of microorganisms was 0 and 10 respectively, and after 20 hours 0 and 0 respectively. In the samples containing 5-methyl-3-oxo-hexanoic acid ethyl ester with concentrations of 2% and 0.2%, the number of microorganisms per ml present after 1-5 minutes was 10⁴, after 2 hours 0 and 100 respectively, and after 20 hours 0 and 0 respec tively.

[15] = Energy density; assay type: physicochemical
[16] = Cold storage of fat emulsion (Intralipid) with ester admixture: visual inspection, pH, mean particle size; assay type: physicochemical

Row | SMILES | number of microorganisms ([1]; 2 hrs) | number of microorganisms ([1]; 20 hrs) | number of microorganisms ([2]; 2 hrs) | number of microorganisms ([2]; 20 hrs) | number of microorganisms ([3]; 2 hrs) | number of microorganisms ([3]; 20 hrs) | number of microorganisms ([4]; 2 hrs) | number of microorganisms ([4]; 20 hrs) | number of microorganisms ([5]; 2 hrs) | number of microorganisms ([5]; 20 hrs) | number of microorganisms ([6]; 2 hrs) | number of microorganisms ([6]; 20 hrs) | number of microorganisms ([7]; 2 hrs) | number of microorganisms ([7]; 20 hrs) | number of microorganisms ([8]; 2 hrs) | number of microorganisms ([8]; 20 hrs) | number of microorganisms ([9]; 2 hrs) | number of microorganisms ([9]; 20 hrs) | number of microorganisms ([10]; 2 hrs) | number of microorganisms ([10]; 20 hrs) | further results
1 | CCOC(=O)CC(=O)C(C)C [4-methyl-3-oxo-pentanoic acid ethyl ester] | 3981 | 1000 | 200 | 0 | 1000 | 0 | 0 | 0 | 0 | 0 | 0 | 0 | 5012 | 0 | 0 | 0 | 0 | 0 | 0 | 0 | number of microorganisms ([11]; 2 hrs): 0; number of microorganisms ([11]; 20 hrs): 0; number of microorganisms ([12]; 2 hrs): 0; number of microorganisms ([12]; 20 hrs): 0; number of microorganisms ([13]; 2 hrs): 3981; number of microorganisms ([13]; 20 hrs): 0; number of microorganisms ([14]; 0.2%, after 2 hours): 10 per ml; number of microorganisms ([14]; 0.2%, after 20 hours): 0 per ml; number of microorganisms ([14]; 2%, after 1-5 minutes, +37°C, starting concentration about 5x10³): 100 per ml; number of microorganisms ([14]; 2%, after 2 hours): 0 per ml; number of microorganisms ([14]; 2%, after 20 hours): 0 per ml; energy density [15]: 27.94 kJ/g; emulsion quality (oil droplets, creaming, oil separation), daily inspection ([16]; Example 5: mother concentrate in Intralipid 10%, 0.3% addition, +5°C, 5 days): had no affect on the quality; pH ([16]; Example 34: 20 percent fat emulsion, 3% emulsion, end of 5-day period (reference emulsion pH=7.9)): 5.6; emulsion stability, daily visual inspection ([16]; Example 34: pure ester in 20 percent fat emulsion, 0.1% admixture, +5°C, 5 days): remained stable over the whole of the test period; emulsion stability, daily visual inspection ([16]; Example 34: pure ester in 20 percent fat emulsion, 3% admixture, +5°C, 5 days): remained stable for four days
2 | CCOC(=O)CC(=O)CC(C)C [5-methyl-3-oxo-hexanoic acid ethyl ester] | 5012 | 5012 | 1995 | 0 | 3162 | 0 | 0 | 0 | 0 | 0 | 0 | 0 | 3981 | 316 | 0 | 0 | 0 | 0 | 0 | 0 | number of microorganisms ([11]; 2 hrs): 0; number of microorganisms ([11]; 20 hrs): 0; number of microorganisms ([12]; 2 hrs): 794; number of microorganisms ([12]; 20 hrs): 25; number of microorganisms ([13]; 2 hrs): 5012; number of microorganisms ([13]; 20 hrs): 0; number of microorganisms ([14]; 0.2%, after 2 hours): 100 per ml; number of microorganisms ([14]; 0.2%, after 20 hours): 0 per ml; number of microorganisms ([14]; 2%, after 2 hours): 0 per ml; number of microorganisms ([14]; 2%, after 20 hours): 0 per ml; energy density [15]: 29.24 kJ/g; emulsion stability, daily visual inspection ([16]; Example 33: pure ester in 20 percent emulsion, 5%, +5°C, 5 days): unstable
